From the NIST ThermoML archive (doi:10.1016/j.jct.2006.10.008)

Legend:
[1] = xn = mol fraction of the nth substance listed; conditions: 298.15 K, 101 kPa, Liquid
[2] = excess molar enthalpy (molar enthalpy of mixing); xn = mol fraction of the nth substance listed; conditions: 298.15 K, 101 kPa, Liquid, Calvet calorimetry

ClCCCCCCl [1,5-dichloropentane] + CCOC=O
Conditions	excess molar enthalpy [kcal/mol]	mass density [kg/m3]
[1], x2 = 0.0955	–	1084.27
[1], x2 = 0.1752	–	1074.48
[1], x2 = 0.2534	–	1064.51
[1], x2 = 0.3284	–	1054.28
[1], x2 = 0.3985	–	1044.1
[1], x2 = 0.4628	–	1034.31
[1], x2 = 0.5327	–	1023.03
[1], x2 = 0.5897	–	1013.34
[1], x2 = 0.6456	–	1003.36
[1], x2 = 0.698	–	993.61
[1], x2 = 0.7473	–	983.9
[1], x2 = 0.7941	–	974.37
[1], x2 = 0.8401	–	964.52
[1], x2 = 0.8829	–	954.89
[1], x2 = 0.9235	–	945.49
[1], x2 = 0.9625	–	936.01
[2], x2 = 0.1024	0.0337	–
[2], x2 = 0.2043	0.0534	–
[2], x2 = 0.2974	0.0705	–
[2], x2 = 0.3848	0.0801	–
[2], x2 = 0.4598	0.0825	–
[2], x2 = 0.5273	0.081	–
[2], x2 = 0.5845	0.0767	–
[2], x2 = 0.6305	0.071	–
[2], x2 = 0.6809	0.062	–
[2], x2 = 0.7286	0.0551	–
[2], x2 = 0.7798	0.0454	–
[2], x2 = 0.8289	0.0355	–
[2], x2 = 0.8791	0.0261	–
[2], x2 = 0.9215	0.0166	–
[2], x2 = 0.9634	0.0075	–

ClCCCCCCl [1,5-dichloropentane] + COC=O
Conditions	excess molar enthalpy [kcal/mol]	mass density [kg/m3]
[1], x2 = 0.1169	–	1086.48
[1], x2 = 0.2211	–	1077.88
[1], x2 = 0.3054	–	1070.16
[1], x2 = 0.3849	–	1062.32
[1], x2 = 0.4622	–	1054
[1], x2 = 0.5291	–	1046.2
[1], x2 = 0.5925	–	1038.15
[1], x2 = 0.6496	–	1030.38
[1], x2 = 0.7004	–	1022.87
[1], x2 = 0.7481	–	1015.48
[1], x2 = 0.792	–	1008.18
[1], x2 = 0.8333	–	1001
[1], x2 = 0.8711	–	993.92
[1], x2 = 0.9066	–	986.88
[1], x2 = 0.94	–	980.05
[1], x2 = 0.9705	–	973.45
[2], x2 = 0.1095	0.0523	–
[2], x2 = 0.2232	0.0884	–
[2], x2 = 0.3299	0.1192	–
[2], x2 = 0.4118	0.1356	–
[2], x2 = 0.4763	0.1457	–
[2], x2 = 0.5269	0.1465	–
[2], x2 = 0.5661	0.1483	–
[2], x2 = 0.613	0.1504	–
[2], x2 = 0.6627	0.1476	–
[2], x2 = 0.7114	0.1441	–
[2], x2 = 0.7734	0.1339	–
[2], x2 = 0.8369	0.1151	–
[2], x2 = 0.88	0.09362	–
[2], x2 = 0.9328	0.0669	–
[2], x2 = 0.9693	0.0361	–

ClCCCCCCCl [1,6-dichlorohexane] + CCCCOC=O
Conditions	excess molar enthalpy [kcal/mol]	mass density [kg/m3]
[1], x2 = 0.074	–	1053.56
[1], x2 = 0.1444	–	1043.66
[1], x2 = 0.2217	–	1032.43
[1], x2 = 0.2795	–	1023.76
[1], x2 = 0.3441	–	1013.82
[1], x2 = 0.4081	–	1003.67
[1], x2 = 0.5278	–	983.77
[1], x2 = 0.586	–	973.68
[1], x2 = 0.641	–	963.84
[1], x2 = 0.702	–	952.63
[1], x2 = 0.7544	–	942.71
[1], x2 = 0.856	–	922.68
[1], x2 = 0.9056	–	912.53
[1], x2 = 0.9528	–	902.59
[2], x2 = 0.095	0.006	–
[2], x2 = 0.1874	0.00985	–
[2], x2 = 0.2768	0.0102	–
[2], x2 = 0.3583	0.00722	–
[2], x2 = 0.4321	0.00131	–
[2], x2 = 0.4949	-0.00696	–
[2], x2 = 0.5195	-0.00906	–
[2], x2 = 0.5526	-0.0129	–
[2], x2 = 0.566	-0.0141	–
[2], x2 = 0.616	-0.0186	–
[2], x2 = 0.6674	-0.0208	–
[2], x2 = 0.7246	-0.0205	–
[2], x2 = 0.7832	-0.0183	–
[2], x2 = 0.8346	-0.0157	–
[2], x2 = 0.892	-0.0102	–
[2], x2 = 0.9474	-0.0059	–

ClCCCCCCCl [1,6-dichlorohexane] + CCOC=O
Conditions	excess molar enthalpy [kcal/mol]	mass density [kg/m3]
[1], x2 = 0.0997	–	1055.27
[1], x2 = 0.196	–	1046.53
[1], x2 = 0.28	–	1038.19
[1], x2 = 0.3577	–	1029.9
[1], x2 = 0.4304	–	1021.49
[1], x2 = 0.4965	–	1013.36
[1], x2 = 0.558	–	1005.21
[1], x2 = 0.6159	–	997.06
[1], x2 = 0.67	–	988.91
[1], x2 = 0.7203	–	980.91
[1], x2 = 0.7675	–	973
[1], x2 = 0.8114	–	965.17
[1], x2 = 0.8538	–	957.24
[1], x2 = 0.893	–	949.58
[1], x2 = 0.9301	–	941.93
[1], x2 = 0.9649	–	934.51
[2], x2 = 0.102	0.0409	–
[2], x2 = 0.205	0.0712	–
[2], x2 = 0.2968	0.09352	–
[2], x2 = 0.3852	0.1054	–
[2], x2 = 0.4641	0.1101	–
[2], x2 = 0.5316	0.1113	–
[2], x2 = 0.5845	0.1095	–
[2], x2 = 0.6442	0.1042	–
[2], x2 = 0.6907	0.09704	–
[2], x2 = 0.7399	0.08726	–
[2], x2 = 0.7869	0.0732	–
[2], x2 = 0.8348	0.0598	–
[2], x2 = 0.8829	0.0418	–
[2], x2 = 0.9248	0.0285	–
[2], x2 = 0.9656	0.0148	–

ClCCCCCCCl [1,6-dichlorohexane] + COC=O
Conditions	excess molar enthalpy [kcal/mol]	mass density [kg/m3]
[1], x2 = 0.1205	–	1057.33
[1], x2 = 0.2277	–	1050.93
[1], x2 = 0.3234	–	1044.52
[1], x2 = 0.4146	–	1037.85
[1], x2 = 0.4858	–	1032.03
[1], x2 = 0.555	–	1025.73
[1], x2 = 0.6169	–	1019.68
[1], x2 = 0.6713	–	1013.87
[1], x2 = 0.7244	–	1007.71
[1], x2 = 0.7696	–	1002.16
[1], x2 = 0.811	–	996.6
[1], x2 = 0.8479	–	991.36
[1], x2 = 0.8838	–	986.03
[1], x2 = 0.9163	–	980.96
[1], x2 = 0.9461	–	976
[1], x2 = 0.9737	–	970.7
[2], x2 = 0.0953	0.058	–
[2], x2 = 0.2199	0.1098	–
[2], x2 = 0.3324	0.1456	–
[2], x2 = 0.4307	0.1664	–
[2], x2 = 0.5033	0.1742	–
[2], x2 = 0.5596	0.1754	–
[2], x2 = 0.5977	0.1763	–
[2], x2 = 0.6601	0.173	–
[2], x2 = 0.7167	0.1668	–
[2], x2 = 0.7749	0.1558	–
[2], x2 = 0.8296	0.1374	–
[2], x2 = 0.8855	0.113	–
[2], x2 = 0.935	0.0781	–
[2], x2 = 0.974	0.0416	–

CCCCOC=O [butyl methanoate] + ClCCCl
Conditions	excess molar enthalpy [kcal/mol]	mass density [kg/m3]
[1], x1 = 0.0446	–	1222.63
[1], x1 = 0.087	–	1201.85
[1], x1 = 0.1314	–	1180.87
[1], x1 = 0.1786	–	1159.63
[1], x1 = 0.2266	–	1138.77
[1], x1 = 0.277	–	1117.89
[1], x1 = 0.3837	–	1076.58
[1], x1 = 0.4403	–	1056.07
[1], x1 = 0.5	–	1035.47
[1], x1 = 0.5622	–	1014.9
[1], x1 = 0.6248	–	995.09
[1], x1 = 0.6931	–	974.48
[1], x1 = 0.7645	–	953.92
[1], x1 = 0.8389	–	933.51
[2], x1 = 0.0414	-0.00954	–
[2], x1 = 0.0923	-0.0212	–
[2], x1 = 0.1436	-0.0343	–
[2], x1 = 0.1984	-0.0481	–
[2], x1 = 0.2527	-0.0619	–
[2], x1 = 0.3048	-0.075	–
[2], x1 = 0.3561	-0.08504	–
[2], x1 = 0.4041	-0.09405	–
[2], x1 = 0.4493	-0.1003	–
[2], x1 = 0.4629	-0.1006	–
[2], x1 = 0.5202	-0.1025	–
[2], x1 = 0.5856	-0.1005	–
[2], x1 = 0.6594	-0.09278	–
[2], x1 = 0.7406	-0.0785	–
[2], x1 = 0.829	-0.0569	–
[2], x1 = 0.9165	-0.0319	–

CCOC=O [ethyl methanoate] + ClCCCl
Conditions	excess molar enthalpy [kcal/mol]	mass density [kg/m3]
[1], x1 = 0.0571	–	1226.06
[1], x1 = 0.1212	–	1204.8
[1], x1 = 0.1793	–	1185.79
[1], x1 = 0.2317	–	1168.78
[1], x1 = 0.2946	–	1148.35
[1], x1 = 0.355	–	1128.9
[1], x1 = 0.4144	–	1109.76
[1], x1 = 0.465	–	1093.66
[1], x1 = 0.5294	–	1073.24
[1], x1 = 0.5889	–	1054.49
[1], x1 = 0.6485	–	1035.88
[1], x1 = 0.7065	–	1017.61
[1], x1 = 0.7648	–	999.52
[1], x1 = 0.8239	–	981.06
[1], x1 = 0.8823	–	962.96
[1], x1 = 0.9345	–	946.9
[2], x1 = 0.0533	-0.0075	–
[2], x1 = 0.117	-0.0173	–
[2], x1 = 0.1872	-0.0268	–
[2], x1 = 0.2551	-0.0353	–
[2], x1 = 0.3201	-0.0432	–
[2], x1 = 0.3798	-0.05	–
[2], x1 = 0.4359	-0.0549	–
[2], x1 = 0.4835	-0.0584	–
[2], x1 = 0.5094	-0.0598	–
[2], x1 = 0.5591	-0.0598	–
[2], x1 = 0.6134	-0.0574	–
[2], x1 = 0.6735	-0.0546	–
[2], x1 = 0.7374	-0.0485	–
[2], x1 = 0.8	-0.0397	–
[2], x1 = 0.8714	-0.0283	–
[2], x1 = 0.9368	-0.0146	–

COC=O [methyl methanoate] + ClCCCl
Conditions	excess molar enthalpy [kcal/mol]	mass density [kg/m3]
[1], x1 = 0.0778	–	1227.3
[1], x1 = 0.1458	–	1211.22
[1], x1 = 0.2144	–	1194.43
[1], x1 = 0.2795	–	1177.71
[1], x1 = 0.3474	–	1160.37
[1], x1 = 0.4099	–	1143.76
[1], x1 = 0.4725	–	1126.96
[1], x1 = 0.5316	–	1110.73
[1], x1 = 0.5888	–	1094.68
[1], x1 = 0.6463	–	1077.99
[1], x1 = 0.6998	–	1062.25
[1], x1 = 0.753	–	1046.16
[1], x1 = 0.8045	–	1030.32
[1], x1 = 0.8548	–	1014.49
[1], x1 = 0.9043	–	998.6
[1], x1 = 0.9525	–	982.78
[2], x1 = 0.0754	0.00636	–
[2], x1 = 0.1373	0.011	–
[2], x1 = 0.1901	0.0152	–
[2], x1 = 0.2508	0.019	–
[2], x1 = 0.3109	0.0219	–
[2], x1 = 0.3728	0.0238	–
[2], x1 = 0.4325	0.0247	–
[2], x1 = 0.4874	0.0246	–
[2], x1 = 0.5372	0.024	–
[2], x1 = 0.5928	0.0226	–
[2], x1 = 0.6569	0.0206	–
[2], x1 = 0.7322	0.0175	–
[2], x1 = 0.8084	0.0138	–
[2], x1 = 0.8844	0.00951	–
[2], x1 = 0.9514	0.0049	–
